Measured values published in ChEMBL document CHEMBL1201862, “PubChem BioAssay data set” (2004).
Calls of active or inactive are those of the source.

Columns and labels:
[1] = target: DNA dC->dU-editing enzyme APOBEC-3A (Homo sapiens, UniProt P31941); test: Dose Response confirmation of small molecule APOBEC3A DNA Deaminase Inhibitors via a fluorescence-based single-stranded DNA deaminase assay. [Related pubchem assays (depositor defined):AID493011, AID493024]; type: functional
[2] = target: T1, Mannose-6-phosphate isomerase (Homo sapiens, UniProt P34949); test: PMI enzyme inhibitors, confirmation, biochemical, fluorescence intensity (AID 1535)
T1 sequence (P34949 whole entry): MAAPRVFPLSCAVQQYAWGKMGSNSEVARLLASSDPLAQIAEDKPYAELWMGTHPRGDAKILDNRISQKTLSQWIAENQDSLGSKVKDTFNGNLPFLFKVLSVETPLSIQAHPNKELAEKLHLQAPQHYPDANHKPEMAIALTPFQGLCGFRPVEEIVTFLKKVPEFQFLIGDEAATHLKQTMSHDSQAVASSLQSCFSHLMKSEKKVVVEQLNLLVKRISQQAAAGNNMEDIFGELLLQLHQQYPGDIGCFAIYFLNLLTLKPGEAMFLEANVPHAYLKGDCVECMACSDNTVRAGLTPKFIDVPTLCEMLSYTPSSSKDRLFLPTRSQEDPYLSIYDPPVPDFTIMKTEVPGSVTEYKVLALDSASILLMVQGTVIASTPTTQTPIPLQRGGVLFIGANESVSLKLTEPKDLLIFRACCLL

Phosphomannomutase 2 = target: T2, Phosphomannomutase 2 (Homo sapiens, UniProt O15305); test: Counter screen SAR assay for PMM2 inhibitors via a fluorescence intensity assay. [Related pubchem assays (depositor defined):AID1545, AID1574]
T2 sequence (O15305 whole entry): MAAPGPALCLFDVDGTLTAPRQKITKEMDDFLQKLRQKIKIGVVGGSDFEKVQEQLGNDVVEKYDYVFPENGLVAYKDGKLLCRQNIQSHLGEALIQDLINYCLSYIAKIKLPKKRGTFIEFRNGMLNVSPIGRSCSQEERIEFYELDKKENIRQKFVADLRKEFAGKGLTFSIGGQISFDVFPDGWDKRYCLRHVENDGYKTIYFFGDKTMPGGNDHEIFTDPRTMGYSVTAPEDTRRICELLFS

Genome polyprotein = Genome polyprotein (dengue virus type 2, UniProt P29990); test: Dengue-2 NS5 methyltransferase inhibitors, primary screen, biochemical, confirmation dose response (AID 588689); type: functional
[3] = target: Induced myeloid leukemia cell differentiation protein Mcl-1 (Homo sapiens, UniProt Q07820); type: functional
[4] = target: T3, Rac GTPase-activating protein 1 (Homo sapiens, UniProt Q9H0H5); test: MgcRacGAP GTPase-activating activity inhibitors, confirmation, biochemical, ADP Hunter fluorescence, primary and confirmatory (AID 624330); type: functional
T3 sequence (Q9H0H5 whole entry): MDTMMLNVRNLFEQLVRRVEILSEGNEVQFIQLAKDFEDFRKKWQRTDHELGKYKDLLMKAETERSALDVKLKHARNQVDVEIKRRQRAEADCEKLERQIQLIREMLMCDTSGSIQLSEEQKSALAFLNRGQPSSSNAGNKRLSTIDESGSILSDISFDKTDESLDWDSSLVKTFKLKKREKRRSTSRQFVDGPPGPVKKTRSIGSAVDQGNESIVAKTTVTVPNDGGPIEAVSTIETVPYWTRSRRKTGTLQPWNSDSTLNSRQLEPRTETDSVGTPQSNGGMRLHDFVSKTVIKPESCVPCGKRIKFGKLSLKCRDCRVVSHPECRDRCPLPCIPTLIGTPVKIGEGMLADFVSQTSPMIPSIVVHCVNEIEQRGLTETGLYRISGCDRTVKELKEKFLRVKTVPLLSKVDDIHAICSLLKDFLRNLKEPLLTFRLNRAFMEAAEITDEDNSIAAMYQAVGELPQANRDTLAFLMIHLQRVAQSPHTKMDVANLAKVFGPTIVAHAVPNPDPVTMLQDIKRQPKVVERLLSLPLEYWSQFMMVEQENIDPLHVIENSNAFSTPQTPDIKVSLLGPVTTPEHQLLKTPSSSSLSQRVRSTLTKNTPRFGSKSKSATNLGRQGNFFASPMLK

[5] = target: DNA dC->dU-editing enzyme APOBEC-3G (Homo sapiens, UniProt Q9HC16); type: functional;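 note: Dose-response counterscreen measuring inhibition of APOBEC3G DNA deaminase activity, run while confirming APOBEC3A inhibitors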
[6] = target: T4, Carboxy-terminal domain RNA polymerase II polypeptide A small phosphatase 1 (Homo sapiens, UniProt Q9GZU7); test: inhibitors of CTDSP1, concentration-response testing, biochemical assay, absorbance-based, actives from ultra-high-throughput screening (AID 540297); type: functional
T4 sequence (Q9GZU7 whole entry): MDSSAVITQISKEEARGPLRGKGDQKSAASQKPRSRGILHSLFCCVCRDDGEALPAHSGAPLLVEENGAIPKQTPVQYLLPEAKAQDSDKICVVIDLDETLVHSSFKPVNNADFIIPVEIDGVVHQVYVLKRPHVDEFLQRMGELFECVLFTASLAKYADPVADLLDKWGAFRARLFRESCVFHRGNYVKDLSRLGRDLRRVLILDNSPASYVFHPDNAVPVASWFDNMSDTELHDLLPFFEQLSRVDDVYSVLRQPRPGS

[7] = target: T1, Mannose-6-phosphate isomerase; test: inhibitors of human PMI, primary screen, biochemical, fluorescence intensity, coupled assay (AID 1209)
Escherichia coli [8] = test: microbe, parasite or virus in culture
Escherichia coli [9] = test: microbe, parasite or virus in culture; remark: listed apart in the source
[10] = target: T5, Microphthalmia-associated transcription factor (Homo sapiens, UniProt O75030); test: TRPM1 promoter luciferase signal decrease, dose response, MITF inhibitor project, cell-based, SK-MEL-5, cherry-picked, set 3 (AID 493073); type: functional
T5 sequence (O75030 whole entry): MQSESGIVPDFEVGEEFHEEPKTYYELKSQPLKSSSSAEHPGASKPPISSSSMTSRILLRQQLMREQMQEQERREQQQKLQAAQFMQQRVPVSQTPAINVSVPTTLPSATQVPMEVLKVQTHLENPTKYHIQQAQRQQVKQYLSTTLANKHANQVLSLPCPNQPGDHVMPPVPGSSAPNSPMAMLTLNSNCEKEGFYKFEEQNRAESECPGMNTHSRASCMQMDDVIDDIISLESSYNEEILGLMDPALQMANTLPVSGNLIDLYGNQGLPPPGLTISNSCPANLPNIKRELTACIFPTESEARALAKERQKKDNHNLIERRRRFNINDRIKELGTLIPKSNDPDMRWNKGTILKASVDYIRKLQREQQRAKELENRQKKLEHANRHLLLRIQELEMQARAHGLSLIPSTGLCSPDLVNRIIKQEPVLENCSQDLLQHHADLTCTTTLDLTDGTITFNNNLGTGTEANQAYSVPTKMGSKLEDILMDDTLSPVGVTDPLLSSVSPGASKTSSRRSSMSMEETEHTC

[11] = growth suppression of PTEN-null colon cells, dose response, cell-based, HCT116 PTEN knockout (AID 1047); type: functional;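 note: HCT116 colon tumor cells with PTEN knocked out; cells exposed to compound for 60 hours before readout; potency for loss of cell viability measured by luminescence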
Cytochrome P450 2D6 = Cytochrome P450 2D6 (Homo sapiens, UniProt P10635);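 note: CYP2D6 member of a cytochrome P450 panel assay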
A-375 [12] = test: MITF: Counter assay: A375 proliferation Measured in Cell-Based System Using Plate Reader - 2084-03_Inhibitor_Dose_DryPowder_Activity. [Related pubchem assays (depositor defined):AID488944]; type: functional; details: Homo sapiens
[13] = growth suppression of beta-catenin-knockout colon cells, dose response, cell-based, HCT116, human colon tumor (AID 1045); type: functional;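 note: HCT116 colon tumor cells with beta catenin knocked out; cells exposed to compound for 60 hours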
A-375 [14] = test: A375 melanoma cell viability reduction, dose response, counter-screen for MITF modulator project, cherry-pick samples, set 2 (AID 540335); type: functional, cell-based; details: Homo sapiens
BJ [15] = test: cytotoxicity toward BJ-TERT fibroblasts, dose response, cell-based, RAS-independent, luminescence (AID 1933); type: functional; details: Homo sapiens
[16] = target: T6, Small ubiquitin-related modifier 1 (Homo sapiens, UniProt P63165); test: inhibitors of SUMO1 partner interactions, dose response, biochemical, FRET (AID 624383); type: functional; details: read-out: IC50_Mean
BJ [17] = test: cells; type: functional, cell-based; details: Homo sapiens
Streptococcus = test: Group A Streptococcus viability loss, dose response, counter-screen for streptokinase expression inhibitor project, luminescence, BacTiterGlo (AID 1915); type: functional, organism-based; details: Streptococcus;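 note: potency for reduction of bacterial viability or growth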
BJ [18] = test: cytotoxicity toward BJ-TERT-LT-ST fibroblasts, dose response, cell-based, RAS-independent, luminescence (AID 1935); type: functional; details: Homo sapiens;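 note: BJ fibroblasts immortalized with TERT plus LT and ST oncogenes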
Streptokinase A = target: T7, Streptokinase A (Streptococcus pyogenes serotype M1, UniProt P10520); test: S. pyogenes streptokinase expression inhibitors, potency, dose response, plasminogen activation absorbance, OD405 (AID 1914); type: functional, Streptococcus pyogenes M1 GAS;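 note: secreted streptokinase activity via plasminogen activation per viability signal from cell pellet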
T7 sequence (P10520 whole entry): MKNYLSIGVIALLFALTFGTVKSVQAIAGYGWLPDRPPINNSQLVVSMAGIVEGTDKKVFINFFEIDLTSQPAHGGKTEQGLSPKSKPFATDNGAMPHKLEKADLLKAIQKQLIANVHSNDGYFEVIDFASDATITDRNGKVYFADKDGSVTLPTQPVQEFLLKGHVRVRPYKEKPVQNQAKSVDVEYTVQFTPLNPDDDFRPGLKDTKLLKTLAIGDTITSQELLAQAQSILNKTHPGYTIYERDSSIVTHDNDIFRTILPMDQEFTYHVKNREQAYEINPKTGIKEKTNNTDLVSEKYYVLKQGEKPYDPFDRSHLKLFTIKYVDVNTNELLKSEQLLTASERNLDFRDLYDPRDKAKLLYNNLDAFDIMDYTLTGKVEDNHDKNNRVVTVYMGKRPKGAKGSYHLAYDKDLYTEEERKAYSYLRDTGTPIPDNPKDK

[19] = target: T6, Small ubiquitin-related modifier 1; test: inhibitors of SUMO1 peptide binding, dose response, biochemical, fluorescence polarization, uHTS hits (AID 624382); type: functional; details: read-out: IC50_Mean
[20] = cytotoxicity toward DRD oncogenic fibroblasts, dose response, cell-based, non-viral oncogenic, luminescence (AID 1934); type: functional; details: Homo sapiens
[21] = target: T8, DNA repair protein RAD52 homolog (Homo sapiens, UniProt P43351); type: functional, biochemical
T8 sequence (P43351 whole entry): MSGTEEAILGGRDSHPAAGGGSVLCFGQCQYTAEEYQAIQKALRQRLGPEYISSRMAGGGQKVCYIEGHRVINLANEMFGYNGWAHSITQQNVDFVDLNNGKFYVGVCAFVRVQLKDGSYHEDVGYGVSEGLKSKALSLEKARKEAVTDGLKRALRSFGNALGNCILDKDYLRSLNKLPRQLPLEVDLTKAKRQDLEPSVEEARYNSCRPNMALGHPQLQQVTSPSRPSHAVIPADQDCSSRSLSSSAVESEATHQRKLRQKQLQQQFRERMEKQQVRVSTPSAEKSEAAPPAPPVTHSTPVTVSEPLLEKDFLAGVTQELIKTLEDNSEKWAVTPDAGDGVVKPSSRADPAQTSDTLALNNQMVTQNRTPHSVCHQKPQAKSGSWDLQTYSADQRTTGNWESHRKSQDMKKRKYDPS

[22] = system: Streptococcus sp. 'group A'; test: growth inhibition of control SK(-) GAS strain, dose response, counter-screen for streptokinase expression inhibitor project, luminescence, kanamycin, BacTiterGlo, confirmation (AID 1900); type: functional, organism-based; details: Streptococcus sp. 'group A'

T6 sequence (P63165 whole entry): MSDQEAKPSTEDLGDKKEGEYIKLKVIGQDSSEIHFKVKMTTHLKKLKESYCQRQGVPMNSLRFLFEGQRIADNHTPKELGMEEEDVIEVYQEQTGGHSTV
DNA dC->dU-editing enzyme APOBEC-3A, sequence (P31941 whole entry): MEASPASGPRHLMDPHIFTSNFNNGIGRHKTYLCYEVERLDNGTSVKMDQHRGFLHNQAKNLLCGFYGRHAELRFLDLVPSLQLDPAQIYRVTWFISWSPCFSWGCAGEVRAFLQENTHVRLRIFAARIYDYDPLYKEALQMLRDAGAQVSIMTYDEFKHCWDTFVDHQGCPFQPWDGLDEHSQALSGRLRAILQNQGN
Cytochrome P450 2D6, sequence (P10635 whole entry): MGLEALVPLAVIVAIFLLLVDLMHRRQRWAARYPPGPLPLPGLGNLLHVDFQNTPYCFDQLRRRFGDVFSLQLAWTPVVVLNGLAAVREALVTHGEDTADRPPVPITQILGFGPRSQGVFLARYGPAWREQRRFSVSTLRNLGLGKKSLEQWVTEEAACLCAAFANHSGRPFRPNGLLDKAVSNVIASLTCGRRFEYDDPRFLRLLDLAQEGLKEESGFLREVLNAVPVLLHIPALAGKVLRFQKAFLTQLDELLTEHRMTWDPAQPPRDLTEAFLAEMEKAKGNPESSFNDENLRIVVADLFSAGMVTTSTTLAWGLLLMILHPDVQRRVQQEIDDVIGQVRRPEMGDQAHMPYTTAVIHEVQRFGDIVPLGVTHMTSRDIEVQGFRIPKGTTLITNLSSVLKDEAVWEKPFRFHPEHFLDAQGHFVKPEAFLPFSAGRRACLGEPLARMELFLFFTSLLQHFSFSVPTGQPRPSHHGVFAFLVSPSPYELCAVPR
Induced myeloid leukemia cell differentiation protein Mcl-1, sequence (Q07820 whole entry): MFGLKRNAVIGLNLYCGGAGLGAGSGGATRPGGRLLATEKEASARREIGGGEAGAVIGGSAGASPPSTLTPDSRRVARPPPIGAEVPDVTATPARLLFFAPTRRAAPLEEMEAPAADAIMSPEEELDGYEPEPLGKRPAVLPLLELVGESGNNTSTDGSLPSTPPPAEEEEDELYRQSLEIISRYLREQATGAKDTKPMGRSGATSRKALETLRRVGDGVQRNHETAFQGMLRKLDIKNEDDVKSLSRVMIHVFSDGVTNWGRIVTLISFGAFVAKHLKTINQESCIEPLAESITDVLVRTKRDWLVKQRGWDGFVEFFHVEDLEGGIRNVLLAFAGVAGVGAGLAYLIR
DNA dC->dU-editing enzyme APOBEC-3G, sequence (Q9HC16 whole entry, the tested form may be a part): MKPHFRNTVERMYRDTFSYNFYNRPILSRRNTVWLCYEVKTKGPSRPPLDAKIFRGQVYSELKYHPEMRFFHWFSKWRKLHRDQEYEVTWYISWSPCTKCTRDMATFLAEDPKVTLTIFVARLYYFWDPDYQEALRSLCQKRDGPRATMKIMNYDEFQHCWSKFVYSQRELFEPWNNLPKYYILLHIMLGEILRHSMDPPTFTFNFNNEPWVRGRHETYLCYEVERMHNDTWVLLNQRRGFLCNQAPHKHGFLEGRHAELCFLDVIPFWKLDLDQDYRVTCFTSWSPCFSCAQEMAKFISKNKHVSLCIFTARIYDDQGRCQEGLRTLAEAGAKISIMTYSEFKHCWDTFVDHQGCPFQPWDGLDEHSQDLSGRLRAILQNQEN
Genome polyprotein, sequence (P29990 2492-3391 limits assumed): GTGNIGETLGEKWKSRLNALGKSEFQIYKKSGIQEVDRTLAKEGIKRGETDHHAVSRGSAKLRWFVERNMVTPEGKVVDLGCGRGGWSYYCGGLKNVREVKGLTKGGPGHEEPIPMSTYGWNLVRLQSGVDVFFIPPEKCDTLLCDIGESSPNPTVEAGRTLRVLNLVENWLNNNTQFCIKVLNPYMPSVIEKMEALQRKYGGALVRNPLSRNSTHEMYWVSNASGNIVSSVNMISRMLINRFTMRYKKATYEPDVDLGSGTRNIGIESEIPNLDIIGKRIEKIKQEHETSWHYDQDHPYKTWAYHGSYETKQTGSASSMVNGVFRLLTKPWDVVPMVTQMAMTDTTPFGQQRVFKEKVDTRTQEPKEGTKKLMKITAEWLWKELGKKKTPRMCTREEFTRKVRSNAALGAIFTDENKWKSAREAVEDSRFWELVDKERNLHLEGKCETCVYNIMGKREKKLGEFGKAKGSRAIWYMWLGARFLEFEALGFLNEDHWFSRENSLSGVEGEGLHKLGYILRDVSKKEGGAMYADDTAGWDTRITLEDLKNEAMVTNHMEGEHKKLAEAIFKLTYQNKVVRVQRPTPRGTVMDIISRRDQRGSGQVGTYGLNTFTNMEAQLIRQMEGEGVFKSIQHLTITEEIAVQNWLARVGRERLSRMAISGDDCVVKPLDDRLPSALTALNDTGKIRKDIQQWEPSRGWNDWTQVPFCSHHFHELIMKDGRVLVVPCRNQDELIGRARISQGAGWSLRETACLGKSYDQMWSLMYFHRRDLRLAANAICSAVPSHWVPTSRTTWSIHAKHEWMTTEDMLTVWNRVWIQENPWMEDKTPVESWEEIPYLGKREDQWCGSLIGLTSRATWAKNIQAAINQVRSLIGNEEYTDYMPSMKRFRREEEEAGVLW

SMILES: O=C(O)CCn1cc(C=C2C(=O)NC(=S)NC2=O)c(-c2cccc(Br)c2)n1
- IC50 [1]: 15.8 µM (active)
- IC50 [2]: 9.83 µM (active)
- IC50 (Phosphomannomutase 2): > 100 µM (inactive)
- IC50 (Genome polyprotein): 6.04 µM (active)
- IC50 [3]: 2.39 µM (active)
- IC50 [4]: 89.9 µM (active)
- IC50 [5]: 29.3 µM (active)
- IC50 [6]: 4.47 µM (active)
- IC50 [7]: 11.7 µM (active)

SMILES: CCc1ccc2c(c1)cc(CN(Cc1ccco1)C(C)=O)c1nnnn12
- AC50 (Escherichia coli [8]): 98.8 µM (active)
- AC50 (Escherichia coli [9]): 24.6 µM (active)

SMILES: O=C(N/N=C/c1cc([N+](=O)[O-])ccc1N1CCNCC1)c1ccc([N+](=O)[O-])cc1
- AC50 [10]: 8.19 µM (active)
- EC50 [11]: 11.1 µM (active)
- AC50 (Cytochrome P450 2D6): 25.1 µM (inconclusive)
- AC50 (A-375 [12]): 24.1 µM (active)
- EC50 [13]: 12.1 µM (active)

SMILES: O=C(Cn1ncc(Cl)c(Cl)c1=O)NC1CCCCC1
- AC50 [10]: 6.82 µM (active)
- AC50 (A-375 [14]): > 35 µM (active)
- AC50 (A-375 [12]): > 35 µM (active)

SMILES: Cn1ccc(=Nc2ccc(NC(=O)c3ccc(/N=c4\ccn(C)c5ccc([N+](=O)[O-])cc45)cc3)cc2)cc1
- EC50 (BJ [15]): 15.3 µM (active)
- IC50 [16]: 13.1 µM (active)
- EC50 (BJ [17]): 18 µM (inconclusive)
- EC50 (Streptococcus): 2.47 µM (active)
- EC50 (BJ [18]): > 150 µM (inconclusive)
- IC50 [4]: 35.5 µM (active)
- EC50 (Streptokinase A): 28 µM (inconclusive)
- IC50 [19]: > 66.6 µM (inactive)
- EC50 [20]: 17.1 µM (active)
- AC50 [21]: 1.28 µM (active)
- AC50 (Escherichia coli [8]): 12 µM (active)
- EC50 [22]: 0.976 µM (active)
